{
  "source": "patent US20060128708A1",
  "about": "“Antagonizing an adenosine A2A receptor to ameliorate one or more components of addictive behavior” (priority 2004, published 2006)",
  "key": {"[1]": {"system": "Male Long Evans rats", "experiment": "Ethanol operant self-administration in rats (30 min FR3 session, 10% EtOH)", "assay_type": "in vivo, rat", "protocol": "Separate groups of rats were given the D2 antagonist eticlopride (0.005, 0.007, 0.01 mg/kg), the A2A antagonist DMPX (1, 3, 5, 7, 10 and 20 mg/kg) and the Al antagonist DPCPX (0.125, 0.25, 0.5 mg/kg) by systemic injections.\nMale Long Evans rats (Harlan, Indianapolis, Ind.) weighing approximately 250 g at the beginning of the studies, were individually housed with food and water available ad libitum except when stated otherwise. They were maintained on a 12 h light/dark cycle, lights on at 7:00 am. Operant training occurred between 8:30 am and 2:00 pm. The experimental procedures were approved in advance by our Institutional Animal Care and Use Committee.\n(§1) EtOH dilution (10% v/v) for self-administration was made up using 95% ethyl alcohol and tap water. Sucrose (Saccharose, Fisher Scientific, Fair Lawn, N.J., USA) solution (10% w/v) was made up with tap water. All the compounds tested were obtained from Sigma Chemical Co. (St. Louis, Mo.). The A2A antagonist DMPX (3,7-Dimethyl-1-propargylxanthine) was dissolved in warm saline. The A1 antagonist DPCPX (8-Cyclopentyl-1,3-dipropylxanthine) was dissolved in 20:80 v/v mixture of Alkamuls EL-620 (Rhodia Inc., Cranbury, N.J., USA) and phosphate buffered saline. The D2 antagonist, eticlopride, was dissolved in saline. Drugs were administered in a 1 ml/kg volume except for the group tested with 5, 7 and 20 mg/kg DMPX, in which the injection volume was 2 ml/kg as the highest DMPX soluble concentration achieved was 10 mg/ml. Drugs were prepared fresh every treatment day.\nEtOH operant self-administration was carried out in standard operant chambers (Med Associates, Georgia, Vt.) housed in sound-attenuated cubicles. Each chamber (33×30.5×33 cm) contained two retractable levers against the right wall, 7 cm from the floor and 1 cm from the right or left edge of the right wall, respectively. One recessed dish positioned at 2.5 cm above floor level and 6 cm from the levers towards the center of the chamber was the reinforcer receptacle. Fluid (0.1 ml) was delivered from syringe pumps upon activation of 1 of the 2 retractable response levers. A 3 sec tone was activated upon lever pressing. […] The beginning of a training session was signaled by the onset of the house light located in the center of the wall facing the levers, at 27.2 cm above the floor. A computer controlled stimulus and fluid delivery and recorded operant responses.\nBefore the beginning of EtOH operant self-administration, rats were exposed to a 10% EtOH (1OE) solution as the only liquid source in their home cages for 4 days. For the next 14 days, animals were allowed free choice between 10E in tap water or tap water from graded glass tubes. At the end of this 14-day period, operant self-administration was initiated according to the sucrose fading technique (Samson, 1986) with minor modifications. Rats were restricted to 30 minutes of water per day for 2 consecutive days. On the night of the second day of water restriction, rats were placed in the operant chambers for a 12-15 hrs overnight session on an FR1 schedule (1 reinforcement of 0.1 ml per lever press) with 10% sucrose (10S) as reinforcer and both levers active. The next day, rats began the operant self-administration training. Animals were kept on water restriction for the next 4-5 days during which they received one 45 min session per day on an FR1 schedule with 10S as reinforcer and one active lever. They were then given free water in their home cages for the remainder of the experiment and were trained for 2-3 more of the above described sessions. The next day, sessions were shortened to 30 minutes and the ratio of responding was increased to FR3. EtOH was added to the sweet solution (10S10E) and rats received 3-4 sessions of this solution, followed by at least 20 sessions with 10E only. A minimum average of 0.3 g/kg EtOH consumption in 8 sessions prior to the beginning of any drug treatment was required. […]"}, "[2]": {"experiment": "Highest soluble concentration of DMPX in the injection vehicle", "assay_type": "physicochemical", "details": "saline or isotonic; dissolved in warm saline; read-out: highest DMPX soluble concentration achieved", "protocol": "as §1"}, "[3]": {"details": "DMPX 1 mg/kg ip, vs saline, p<0.03"}, "[4]": {"details": "DMPX 10 mg/kg ip, vs saline, p<0.02"}, "[5]": {"details": "DMPX 20 mg/kg ip, vs saline, p<0.05"}, "[6]": {"details": "DPCPX 0.125, 0.25, or 0.5 mg/kg ip, ANOVA NS"}},
  "note": "Entries after “also recorded” stand apart in the source; their conditions may differ.",
  "data": [
    {"smiles": "C#CCn1c(=O)c2c(ncn2C)n(C)c1=O", "note": "[DMPX, 3,7-Dimethyl-1-propargylxanthine]", "values": [
      {"measurement": "number of lever presses", "setting": "[1]; DMPX 1 mg/kg ip, vs saline, p<0.02", "value": "significantly increased"},
      {"measurement": "g/kg of EtOH intake", "setting": "[1]; [3]", "value": "significantly increased"},
      {"measurement": "number of EtOH reinforcements", "setting": "[1]; [3]", "value": "significantly increased"},
      {"measurement": "any of the measures (lever presses, EtOH reinforcements, g/kg EtOH)", "setting": "[1]; DMPX 3 mg/kg ip, vs saline", "value": "did not significantly affect"},
      {"measurement": "any of the measures (lever presses, EtOH reinforcements, g/kg EtOH)", "setting": "[1]; DMPX 5 mg/kg ip, vs saline", "value": "did not significantly affect"},
      {"measurement": "any of the measures (lever presses, EtOH reinforcements, g/kg EtOH)", "setting": "[1]; DMPX 7 mg/kg ip, vs saline", "value": "did not significantly affect"},
      {"measurement": "g/kg of EtOH consumption", "setting": "[1]; [4]", "value": "significantly decreased"},
      {"measurement": "number of lever presses", "setting": "[1]; [4]", "value": "significantly decreased"},
      {"measurement": "number of EtOH reinforcements", "setting": "[1]; DMPX 10 mg/kg ip, vs saline, p<0.03", "value": "significantly decreased"},
      {"measurement": "g/kg EtOH intake", "setting": "[1]; [5]", "value": "decreased"},
      {"measurement": "number EtOH reinforcements", "setting": "[1]; [5]", "value": "significant effect"},
      {"measurement": "EtOH self-administration, dose-effect function", "setting": "[1]; DMPX 1-20 mg/kg ip", "value": "bimodal effect"},
      {"measurement": "solubility", "setting": "[2]", "value": 10000, "unit": "µg/mL"}
    ]},
    {"smiles": "CCCn1c(=O)c2[nH]c(C3CCCC3)nc2n(CCC)c1=O", "note": "[DPCPX, 8-Cyclopentyl-1,3-dipropylxanthine]", "values": [
      {"measurement": "g/kg of EtOH consumption", "setting": "[1]; [6]", "value": "no effect"},
      {"measurement": "number of EtOH reinforcements", "setting": "[1]; [6]", "value": "no effect"},
      {"measurement": "number of lever presses", "setting": "[1]; [6]", "value": "no effect"},
      {"measurement": "EtOH self-administration, effect across doses", "setting": "[1]; DPCPX 0.125-0.5 mg/kg ip", "value": "without effect; also recorded: did not affect"}
    ]},
    {"smiles": "CCc1cc(Cl)c(OC)c(C(=O)NC[C@@H]2CCCN2CC)c1O", "note": "[eticlopride]", "values": [
      {"measurement": "any of the analyzed measurements (lever presses, reinforcements, g/kg EtOH)", "setting": "[1]; eticlopride 0.005 mg/kg sc, vs saline", "value": "did not significantly affect"},
      {"measurement": "number of lever presses", "setting": "[1]; eticlopride 0.007 mg/kg sc, vs saline, decrease, p<0.005", "value": "significant effects"},
      {"measurement": "g/kg of EtOH consumption", "setting": "[1]; eticlopride 0.007 mg/kg sc, vs saline, decrease, p<0.01", "value": "significant effects"},
      {"measurement": "number of reinforcements", "setting": "[1]; eticlopride 0.007 mg/kg sc, vs saline, decrease, p<0.02", "value": "significant effects"},
      {"measurement": "number of lever presses", "setting": "[1]; eticlopride 0.01 mg/kg sc, vs saline, decrease, p<0.0001", "value": "significant effects"},
      {"measurement": "g/kg of EtOH consumption", "setting": "[1]; eticlopride 0.01 mg/kg sc, vs saline, decrease, p<0.004", "value": "significant effects"},
      {"measurement": "number of reinforcements", "setting": "[1]; eticlopride 0.01 mg/kg sc, vs saline, decrease, p<0.007", "value": "significant effects"},
      {"measurement": "EtOH self-administration, effect across doses", "setting": "[1]; eticlopride 0.005-0.01 mg/kg sc", "value": "dose-dependently decreased"},
      {"measurement": "EtOH self-administration, effect across doses", "setting": "[1]; eticlopride 0.005-0.01 mg/kg sc, listed as Eticlopride", "value": "dose-dependently reduced"}
    ]}
  ]
}
